Results reported in publication PMC8333309, “Mechanism of LolCDE as a molecular extruder of bacterial triacylated lipoproteins” (Nature Communications, 2021).

Molecular target: T1, LolCDE (Escherichia coli, UniProt P75957)
T1 construct: gene lolD; co-expressed in E. coli BL21(DE3); purified in DDM, reconstituted into MSP1D1/POPG nanodiscs; co-purifies with lipoprotein; with Lipoprotein-releasing system transmembrane protein LolC; Lipoprotein-releasing system transmembrane protein LolE
T1 sequence (P75957 1-233): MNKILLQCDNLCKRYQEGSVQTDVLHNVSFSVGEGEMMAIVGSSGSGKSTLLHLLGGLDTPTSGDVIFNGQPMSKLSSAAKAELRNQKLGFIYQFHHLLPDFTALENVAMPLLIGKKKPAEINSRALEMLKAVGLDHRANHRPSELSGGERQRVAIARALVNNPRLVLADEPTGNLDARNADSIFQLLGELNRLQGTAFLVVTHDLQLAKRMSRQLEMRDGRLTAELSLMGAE
T1 sequence (P0ADC3 1-399 partner): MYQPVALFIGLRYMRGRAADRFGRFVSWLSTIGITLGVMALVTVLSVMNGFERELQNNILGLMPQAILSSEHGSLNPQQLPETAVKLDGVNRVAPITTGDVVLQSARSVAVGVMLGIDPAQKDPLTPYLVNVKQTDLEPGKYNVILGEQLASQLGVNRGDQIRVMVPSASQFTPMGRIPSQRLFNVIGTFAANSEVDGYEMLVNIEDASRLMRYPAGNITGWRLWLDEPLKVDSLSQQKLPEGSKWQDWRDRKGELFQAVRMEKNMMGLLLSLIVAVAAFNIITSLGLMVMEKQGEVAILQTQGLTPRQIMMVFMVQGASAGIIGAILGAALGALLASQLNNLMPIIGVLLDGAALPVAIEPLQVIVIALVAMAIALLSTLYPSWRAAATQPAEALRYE
T1 sequence (P75958 2-414 partner): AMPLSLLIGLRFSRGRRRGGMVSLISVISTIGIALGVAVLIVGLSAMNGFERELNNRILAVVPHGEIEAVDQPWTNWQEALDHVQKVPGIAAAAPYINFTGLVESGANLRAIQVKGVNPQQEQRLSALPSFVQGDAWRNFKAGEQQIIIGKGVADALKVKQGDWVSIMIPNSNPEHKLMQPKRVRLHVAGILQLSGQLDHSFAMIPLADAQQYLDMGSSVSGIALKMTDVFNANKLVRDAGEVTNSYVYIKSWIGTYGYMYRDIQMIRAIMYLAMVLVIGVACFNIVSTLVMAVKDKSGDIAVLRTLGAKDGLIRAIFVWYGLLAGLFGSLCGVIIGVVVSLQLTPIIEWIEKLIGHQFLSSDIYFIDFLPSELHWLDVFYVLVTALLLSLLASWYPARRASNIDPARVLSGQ
Test: colorimetric phosphate-release ATPase assay
Type: biochemical
Settings: LolCDE in nanodiscs; 4 mM ATP, 4 mM MgCl2, pH 8, 37 °C; traps ADP-vanadate in the ATP site

In the case of `[O]=[V]([OH])([OH])[OH]` [orthovanadate], the “% inhibition at 0.1 mM” value is reported as ~ 90%.
